# Assay results: patent publication US12728186B2, “Methods and kits for preparing pathogen-inactivated whole blood” (priority 2018, dated 2026)
# “And” between values parts separate entries of the source, which are not always exact repeats. Equal values may be shown once.
# Columns and labels:
# Format in all cases: physicochemical
# [1] = Residual amustaline, Example 8 (2-container processing before component preparation); details: Units 2-7
# Protocol: Additionally, a study was performed to evaluate plasma and red blood cells prepared from a pathogen-inactivated whole blood composition, either shortly after the whole blood PI treatment process, or after storing the pathogen-inactivated whole blood at 4° C. prior to preparing the plasma and red blood cell components. Donor whole blood units were pooled and split into seven units (e.g., to standardize across units), and subjected to treatment conditions as follows. Unit 1 was the control and treated only with saline, while units 2-7 were treated with amustaline and GSH, at concentrations of about 0.2 mM and 2.0 mM, respectively. Following addition of the amustaline and GSH, or the saline, in the first container (bag), the units were incubated at 22° C. for 22 hours, and then transferred to the second container (bag). Sampling was done at the time of transfer, and also at 24 hours and 26 hours (2 or 4 hours post-transfer, also incubated at 22° C.), for analysis of residual amustaline, hemolysis and/or fibrinogen and Factor VIII levels. […] Additionally, at Days 2, 5 and 7, samples were removed from the stored pathogen-inactivated whole blood, centrifuged to obtain plasma and red blood cells, and similarly analyzed. […]
# [2] = Residual unreacted amustaline by LCMS, Example 4 (1-, 2- or 3-container kits); details: for Residual amustaline levels in pathogen-inactivated whole blood, 20 hr / Residual amustaline levels in pathogen-inactivated whole blood, 22 hr / Residual amustaline levels in pathogen-inactivated whole blood, 24 hr / Residual amustaline levels in pathogen-inactivated whole blood, 26 hr: 22° C.
# Protocol: Another study was performed to evaluate the preparation of pathogen-inactivated whole blood using amustaline and GSH, in 1-container, 2-container or 3-container kits of the present disclosure. Six ABO-matched whole blood units in anticoagulant were pooled and split into seven units of ~450 mL. The seven whole blood units were subjected to pathogen inactivation under one of three conditions—with no transfer step between containers, one transfer step between two containers, or two transfer steps between three containers (Table 5). Amustaline and GSH were added to the whole blood units by sterile docking of a filter set as previously described to the tubing of an input port of the first container that contained the whole blood. Unit 1 was treated with amustaline and GSH at 0.2 mM and 2.0 mM final concentrations, respectively, in the first container and incubated at 22° C., with samples taken at 20, 22, 24 and 26 hours, with no further container transfers. For units 2-4, amustaline and GSH were added to the whole blood (0.2 mM and 2.0 mM final concentrations, respectively) in the first container and incubated at 22° C. for 20 hours. A sample was taken at 20 hours, along with transfer to a second bag and further incubation at 22° C., with additional sampling at 2 hour intervals (22, 24 and 26 hr). For units 5-7, amustaline and GSH were added to the whole blood (0.2 mM and 2.0 mM final concentrations, respectively) in the first container and the mixture transferred to a second container, followed by incubation at 22° C. for 20 hours. A sample was taken at 20 hours, along with transfer to a third bag and further incubation at 22° C., with additional sampling at 2 hour intervals (22, 24 and 26 hr).
# Samples were analyzed by LCMS to determine the level of residual, unreacted amustaline as previously described.
# [3] = Residual amustaline by LCMS, Example 6 further example (direct donor collection into 2-container kit); details: donor blood collected into 2-container kit with CPDA-1; 22° C. 20 hours, second container 2-4 hours
# Protocol: In another example, a 2-container kit comprising a treatment container and a filter set (e.g., described above) for introducing the amustaline/GSH (e.g., FIG. 8c) is used to collect from a donor 450 mL of whole blood into the first container that contains 63 mL of anticoagulant CPDA-1 (e.g., blood:anticoagulant ratio approximately 7:1), through the first inlet port. The collection line is then closed using a medical tubing clamp and the whole blood and anticoagulant solution are mixed. The pathogen inactivation compound amustaline and the quencher GSH are next added to the whole blood in the first container through the second port, to final concentrations of about 0.2 mM and 2.0 mM, respectively. The mixture of whole blood, PIC and quencher are incubated at 22° C. for 20 hours, followed by transfer of the mixture to the second container, clamping the tubing between the first and second containers, and incubating the mixture at 22° C. for a further 2-4 hours to provide a pathogen-inactivated whole blood unit.
# [4] = Unit 1, no transfer (1 bag kit)
# [5] = Units 2-4, 1x transfer (2 bag kit), to second bag at 20 hr
# [6] = Units 5-7, 2x transfer (3 bag kit), second container after addition, third bag at 20 hr
smiles,measurement,setting,value
O=C(CCNc1c2ccccc2nc2ccccc12)OCCN(CCCl)CCCl [amustaline],"Residual amustaline levels in pathogen-inactivated whole blood, 22 hr","[1]; 22 hr (time of transfer), first container 22° C. for 22 hours, then second container",1.46 nM and 1.39 nM and 1.35 nM and 1.96 nM and 1.84 nM and 1.55 nM
same,"Residual amustaline levels in pathogen-inactivated whole blood, 26 hr","[1]; 26 hr (4 hours post-transfer, 22° C.), second container from 22 hr","BLOQ (BLOQ = Below Limit of Quantitation (e.g., < 0.75 nM))"
same,"level of amustaline after PI processing, 2-container and 3-container kits","[2]; 2-container and 3-container kits, after transfer at 20 hr",below the limit of quantitation
same,"Residual amustaline levels in pathogen-inactivated whole blood, 20 hr","[2]; 20 hr (at transfer to third bag), Units 5-7, 2x transfer (3 bag kit), second container after addition, third bag at 20 hr",1.47 nM and 1.46 nM and 1.53 nM
same,"Residual amustaline levels in pathogen-inactivated whole blood, 20 hr","[2]; 20 hr (at transfer), Units 2-4, 1x transfer (2 bag kit), to second bag at 20 hr",1.53 nM and 1.65 nM and 1.66 nM
same,"Residual amustaline levels in pathogen-inactivated whole blood, 20 hr","[2]; 20 hr, Unit 1, no transfer (1 bag kit)",1.47 nM
same,"Residual amustaline levels in pathogen-inactivated whole blood, 22 hr",[2]; [4],1.54 nM
same,"Residual amustaline levels in pathogen-inactivated whole blood, 22 hr",[2]; [5],"BLOQ (BLOQ = Below Limit of Quantitation (e.g., < 0.75 nM))"
same,"Residual amustaline levels in pathogen-inactivated whole blood, 22 hr",[2]; [6],"BLOQ (BLOQ = Below Limit of Quantitation (e.g., < 0.75 nM))"
same,"Residual amustaline levels in pathogen-inactivated whole blood, 24 hr",[2]; [4],1.39 nM
same,"Residual amustaline levels in pathogen-inactivated whole blood, 24 hr",[2]; [5],"BLOQ (BLOQ = Below Limit of Quantitation (e.g., < 0.75 nM))"
same,"Residual amustaline levels in pathogen-inactivated whole blood, 24 hr",[2]; [6],"BLOQ (BLOQ = Below Limit of Quantitation (e.g., < 0.75 nM))"
same,"Residual amustaline levels in pathogen-inactivated whole blood, 26 hr",[2]; [4],1.32 nM
same,"Residual amustaline levels in pathogen-inactivated whole blood, 26 hr",[2]; [5],"BLOQ (BLOQ = Below Limit of Quantitation (e.g., < 0.75 nM))"
same,"Residual amustaline levels in pathogen-inactivated whole blood, 26 hr",[2]; [6],"BLOQ (BLOQ = Below Limit of Quantitation (e.g., < 0.75 nM))"
same,Residual amustaline levels in the pathogen-inactivated whole blood preparation,[3],below 1 nm
